This is an account of results in patent EP4813463A2, “TYK2 INHIBITORS AND COMPOSITIONS AND METHODS THEREOF” (Lynk Pharmaceuticals Co. Ltd., priority 2023, dated 2024).

In general, half-life refers to how long it takes for the measured level to halve. What is called Vd is a proportionality between amount in the body and measured concentration, not a real space. Low values mean little distribution into tissue, high ones wide distribution into tissue. In general, clearance refers to the rate of elimination divided by the concentration. The low end stands for inefficient removal, the high end for efficient removal. The Cmax is the highest concentration seen after dosing. Usually bioavailability stands for the share of a dose that reaches the circulation, judged against a reference dose that is usually intravenous. Higher therefore signals much systemic uptake.

In series [1] the test system is Anti-CD40-induced colitis. Briefly: SCID mice colitis by anti-CD40-driven pharmacodynamics study. The format is in vivo, C.B17-SCID mice. Particulars: for Colon density / Colon length (cm) / Colon weight: Day 5, mean ± SEM, n = 10. The method, then:
This study aimed to obtain the pharmacodynamics of the test article in colitis model by Anti-CD40-driven after oral administration. C.B17-SCID mice obtained from the Zhejiang Vital River Laboratory Animal Technology Co., Ltd. Starting on Day -1 and continuing daily through Day 4, mice (n = 10 per group) were dosed with 0 (vehicle control), 15, 45, or 100 mg/kg PO BID compound 7A in vehicle containing 5% DMSO, 65% PEG400, and 30% DDH2O (v/v/v). In addition, on Day 0, 30 minutes after administration, colitis was induced with a single intraperitoneal injection of 200 µL of anti-CD40 mAb (BE0016-2, BioXcell) in DPBS, the Sham group mice were intraperitoneally injected with 200 µL of DPBS.
Each mouse was scored daily for pathological features, including stool consistency, presence of blood stool, and body weight loss. Individual scores were combined to generate the Disease Activity Index (DAI) which was calculated daily for each mouse, the maximum score was 12. On Day 5, all animals were euthanized, colon was collected for measuring colon index (weight, length, and density).

For series [2], the system named is T cell transfer colitis model. Briefly: SCID mice colitis by T cell transfer pharmacodynamics study. The format is in vivo, C.B17-SCID mice. The method, then: This study aimed to obtain the pharmacodynamics of the test article in T cell transfer colitis model after oral administration. For induction of colitis, naive CD4^+ T cells (CD4^+CD44^lowCD62L^high) were adoptively transferred from MHC-compatible Balb/c mice to C.B17-SCID recipients. Balb/c splenocytes were […] selected for CD4^+ T cells using the Mouse Naïve CD4^+ T Cell Isolation Kit (Cat #19765, […]), 1.5×10^6 cells in a volume of 100 µL PBS were transferred to each recipient by i.v. injection on Day 0. C.B17-SCID mice obtained from the Beijing Vital River Laboratory Animal Technology Co., Ltd. Starting on Day 0 and continuing daily through Day 32, mice (n = 8 per group) were dosed with 0 (vehicle control), 45 mg/kg PO BID compound 7A in a vehicle containing 5% DMSO, 65% PEG400, and 30% DDH2O (v/v/v).
Each mouse was scored three times weekly for pathological features, including stool consistency, and body weight loss. Individual scores were combined to generate the DAI, the maximum score was 6. At the termination of the study, the colon was collected for measuring colon index (weight, length, and density), emptied of fecal contents opened longitudinally along the mesenteric border, and formed a Swiss-Roll from the proximal to the distal end, processed to paraffin-embedded blocks to generate 5-µm-thick sections for hematoxylin and eosin (H&E) staining. Slices were evaluated in a blinded manner and histological scores were assessed based on the following parameters: inflammation, epithelial defects, crypt atrophy, dysplasia, and the area affected by dysplasia.

A short description of series [3]: Brain pharmacokinetic studies in rats. The format is in vivo, Sprague-Dawley rats. Particulars: for half-life / Kp / AUC: rats, iv, 3 mg/kg, solution; for Kp: read-out: Brain AUC/Systemic AUC; for brain exposure in Rats: result in words.
Series [4] can be described thus: Pharmacokinetic study in dogs. The format is in vivo. Particulars: dog, plasma; Beagle dogs, intravenous, 2 mg/kg, solution. The method, then: (§1) Pharmacokinetic profiles of test articles were evaluated in fasted mouse, Sprague-Dawley rats and Beagle dogs. After dosing, blood samples were collected at each time point. For IV injection group, time points were set at 5, 15, 30 min, and then 1, 2, 4, 8 and 24 hours after dosing. For oral gavage group,#time points were set at 15, 30 min, and then 1, 2, 4, 8, and 24 hours. Blood was collected into appropriately labeled tubes containing K2EDTA as the anticoagulant. Plasma was obtained within 1 hours of blood collection by centrifugation at 8000×g and 4 °C for 6 minutes, and then stored at -20 °C until analyzed by LC/MS/MS for quantification. PK parameter values, including, but not necessarily limited to, the maximum plasma concentrations (Cmax), the time to reach the maximum concentrations (Tmax), and the area under the plasma concentration vs. time curve (AUC) from time zero to 24-hour (AUC0-24h) were determined using WinNonlin program. Table 17. Pharmacokinetic Parameters in Beagle dogs by Intravenous Administration

A short description of series [5]: Pharmacokinetic study in mice. The format is in vivo. The settings on record: mouse, plasma, solution. The method, then:
as §1

Where [6] appears, read: 45mpk PO BID, Day 0 through Day 32, mean ± SEM, n = 8.
[7] abbreviates: Sprague-Dawley, rat, systemic (plasma).
[8] abbreviates: Sprague-Dawley, rat, systemic (plasma), read-out: AUC.

`[2H]C([2H])([2H])NC(=O)c1cnc(NC(=O)C2CC2)cc1Nc1cnn2ccc([C@H](O)C(F)(F)F)c(OC)c12` [Example 7A, (S)-6-(cyclopropanecarboxamido)-4-((4-methoxy-5-(2,2,2-trifluoro-1-hydroxyethyl)pyrazolo[1,5-a]pyridin-3-yl)amino)-N-(methyl-d3)nicotinamide]: in series [1] (15, 45, or 100 mg/kg PO BID, result in words), the “effect on Anti-CD40-induced colitis” value is “significant protective effect”. Moreover, in series [1] (15mpk PO BID), the “Colon density” value came to 46.99 ± 2.71 mg/cm, the “Colon length (cm)” value was found to be 5.61±0.20 cm and the “Colon weight” value came out at 260.20 ± 10.58 mg. In series [1] (45mpk PO BID), the “Colon density” value is 37.00 ± 1.36 mg/cm, the “Colon length (cm)” value is 6.34±0.13 cm and the “Colon weight” value stood at 234.20 ± 9.04 mg. Besides, in series [1] (100mpk PO BID), the “Colon density” value worked out at 29.23 ± 0.91 mg/cm, the “Colon length (cm)” value was determined as 7.15±0.15 cm and the “Colon weight” value turned out to be 208.40 ± 5.53 mg. For the same compound, the body weight loss result in series [1] (FIG. 1. A, result in words) was “reduction”. Further, the DAI score entry in series [1] (FIG. 1. B, result in words) is “reduction”. In series [2] (setting [6]), the “Colon density” value was 27.66 ± 1.24 mg/cm, the “Colon length (cm)” value is listed as 7.94±0.32 cm, the “Colon weight” value was determined as 218.38 ± 10.13 mg and the “Spleen index” value stood at 3.08 ± 0.36 mg/g. Also, the disease-related weight loss entry in series [2] (FIG. 2. A, result in words) was “inhibiting”. In series [2] (FIG. 2. B, result in words), the DAI scores result is reported as “inhibiting”. Also, the “absolute value of Th1 and Th17 cells” value in series [2] (FIG. 3. B-C, result in words) is “significantly reduced”. Also, the “percentage value of CD4^+T cells and Th17 cells in whole blood” value in series [2] (FIG. 3. D-E, result in words) is recorded as “significantly reduced”. Also, in series [2] (FIG. 4. A, result in words), the “CD4^+T cells in colonic tissue” value was “significantly reduced”. Further, the colonic histopathological changes entry in series [2] (FIG. 4. B, result in words) is “inhibiting”. For the same compound, in series [2] (orally twice daily, result in words), the colitis symptoms entry is given as “alleviated colitis symptoms”.
With `COC(=O)c1cnc(NC(=O)C2CC2)cc1Nc1nn(C)c2ccc([C@H](OC)C(F)(F)F)c(OC)c12` [Example 45B, Methyl (S)-6-(cyclopropanecarboxamido)-4-((4-methoxy-1-methyl-5-(2,2,2-trifluoro-1-methoxyethyl)-1H-indazol-3-yl)amino)nicotinate], the half-life in series [3] (Sprague-Dawley, rat, brain) is 2.23 h; in series [3] (setting [7]) it was 2.28 h. Moreover, the Kp in series [3] (Sprague-Dawley, rat, brain) was 0.96. Further, the AUC was determined as 1280 ng·h/mL in series [3] (setting [8]) and 1235 ng·h/g in series [3] (brain). Also, the “brain exposure in Rats” value in series [3] is on record as “good brain exposure”.
Consider `COC(=O)c1cnc(NC(=O)C2CC2)cc1Nc1nn(C)c2ccc([C@H](O)C(F)(F)F)c(OC)c12` [Example 48A, Methyl (S)-6-(cyclopropanecarboxamido)-4-((4-methoxy-1-methyl-5-(2,2,2-trifluoro-1-hydroxyethyl)-1H-indazol-3-yl)amino)nicotinate], for which the half-life in series [3] (Sprague-Dawley, rat, brain) was 2.04 h; in series [3] (setting [7]) it was 1.62 h. For the same compound, the Kp in series [3] (Sprague-Dawley, rat, brain) was found to be 0.19. In addition, the AUC in series [3] (setting [8]) was found to be 1530 ng·h/mL; in series [3] (brain), 288 ng·h/g. Further, in series [3], the “brain exposure in Rats” value is reported as “good brain exposure”.
On to `[2H]C([2H])([2H])NC(=O)c1cnc(NC(=O)C2CC2)cc1Nc1nn(C)c2ccc([C@H](OC([2H])([2H])[2H])C(F)(F)F)c(OC)c12` [Example 55A, (S)-6-(cyclopropanecarboxamido)-4-((4-methoxy-1-methyl-5-(2,2,2-trifluoro-1-(methoxy-d3)ethyl)-1H-indazol-3-yl)amino)-N-(methyl-d3)nicotinamide], for which, in series [4], the AUC was found to be 9980 ng·h/mL, the volume of distribution (Vd) is 0.678 L/kg, the clearance was 3.52 mL/min/kg and the half-life was 3.64 h. In series [5] (intravenous, 3 mg/kg), this compound showed an AUC of 7600 ng·h/mL, a Vd of 0.819 L/kg, a clearance of 6.57 mL/min/kg and a half-life of 2.57 h. In series [5] (oral, 5 mg/kg), this compound gave an AUC of 7490 ng·h/mL, a Cmax of 2300 ng/mL, a bioavailability of 59.2% and a half-life of 2.38 h.
